Results published in patent publication US12539292B2, “BRM targeting compounds and associated methods of use” (Arvinas Operations, Inc., priority 2018, dated 2026).
Where two headings read alike, the source gives them in different places.

Biological target: T1, BRM (Homo sapiens, UniProt P51531)
T1 construct: In-Cell Western Screen of BRM Degradation in SW1573 Cells; endogenous in cells; host or cells: SW1573
Experiment: In-cell Western screen of BRM degradation in SW1573 cells (Dmax and DC50)
Format: cell-based
Conditions: for Dmax: SW1573, read-out: BRM Dmax (%); for DC50: read-out: BRM DC50
Method in brief: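 After adhering overnight, cells received compound for 18-20 hours. They were then washed in cold DPBS, fixed with 4% PFA for 20 min and permeabilized for 30 min. Blocking and fluorescent secondary staining followed before imaging.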

[1] = % degraded, when tested at the top concentration of between 0.3 and 10 μM

T1 sequence (P51531 whole entry): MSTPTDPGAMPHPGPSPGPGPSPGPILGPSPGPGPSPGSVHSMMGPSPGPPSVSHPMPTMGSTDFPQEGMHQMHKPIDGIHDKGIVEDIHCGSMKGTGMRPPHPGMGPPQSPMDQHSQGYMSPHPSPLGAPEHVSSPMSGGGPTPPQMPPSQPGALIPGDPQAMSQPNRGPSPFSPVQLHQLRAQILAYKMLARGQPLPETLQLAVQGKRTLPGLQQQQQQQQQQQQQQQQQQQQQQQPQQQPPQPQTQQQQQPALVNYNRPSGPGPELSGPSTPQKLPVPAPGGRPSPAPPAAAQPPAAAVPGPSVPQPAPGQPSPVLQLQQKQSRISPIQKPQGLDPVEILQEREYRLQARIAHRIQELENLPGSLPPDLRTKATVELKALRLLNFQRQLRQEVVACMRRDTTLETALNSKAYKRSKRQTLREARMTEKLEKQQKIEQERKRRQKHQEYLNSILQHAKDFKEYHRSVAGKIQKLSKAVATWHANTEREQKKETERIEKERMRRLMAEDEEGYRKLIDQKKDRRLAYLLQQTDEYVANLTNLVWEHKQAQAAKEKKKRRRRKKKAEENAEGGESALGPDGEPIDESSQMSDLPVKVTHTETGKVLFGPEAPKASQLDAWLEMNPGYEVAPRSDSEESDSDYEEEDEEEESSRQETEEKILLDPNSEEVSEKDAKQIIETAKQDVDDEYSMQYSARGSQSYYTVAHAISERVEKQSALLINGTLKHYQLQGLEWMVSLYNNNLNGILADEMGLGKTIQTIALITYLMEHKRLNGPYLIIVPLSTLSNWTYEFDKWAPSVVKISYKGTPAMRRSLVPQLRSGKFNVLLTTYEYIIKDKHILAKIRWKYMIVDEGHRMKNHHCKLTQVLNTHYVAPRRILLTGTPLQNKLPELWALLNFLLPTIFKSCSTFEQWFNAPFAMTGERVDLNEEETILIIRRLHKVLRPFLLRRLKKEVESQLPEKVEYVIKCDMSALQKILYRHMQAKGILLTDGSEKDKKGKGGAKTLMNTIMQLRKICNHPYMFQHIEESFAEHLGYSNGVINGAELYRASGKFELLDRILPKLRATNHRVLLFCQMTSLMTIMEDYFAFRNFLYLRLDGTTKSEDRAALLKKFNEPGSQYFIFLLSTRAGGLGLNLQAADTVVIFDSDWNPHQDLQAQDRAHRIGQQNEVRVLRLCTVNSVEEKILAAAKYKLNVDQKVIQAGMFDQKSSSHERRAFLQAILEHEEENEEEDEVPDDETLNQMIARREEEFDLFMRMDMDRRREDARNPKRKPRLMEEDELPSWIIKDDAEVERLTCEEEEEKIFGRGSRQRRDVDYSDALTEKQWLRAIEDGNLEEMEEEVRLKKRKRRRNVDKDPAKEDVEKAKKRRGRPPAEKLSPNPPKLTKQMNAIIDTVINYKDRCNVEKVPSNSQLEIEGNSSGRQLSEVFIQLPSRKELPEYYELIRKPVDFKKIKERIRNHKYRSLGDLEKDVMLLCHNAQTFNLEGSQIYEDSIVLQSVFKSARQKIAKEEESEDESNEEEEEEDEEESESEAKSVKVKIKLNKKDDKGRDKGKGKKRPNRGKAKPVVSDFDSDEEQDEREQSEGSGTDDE

| Structure (SMILES) | Dmax [1] [%] | DC50 (degradation of BRM) [nM] | BRM Dmax (%) [1] | DC50 (target protein degradation) [nM] |
| --- | --- | --- | --- | --- |
| Cc1ncsc1-c1ccc([C@H](C)NC(=O)[C@@H]2C[C@@H](O)CN2C(=O)[C@@H](c2cc(N3CCC(CO[C@H]4C[C@H](Oc5cc(N6C7CCC6CN(c6cc(-c8ccccc8O)nnc6N)C7)ccn5)C4)CC3)no2)C(C)C)cc1 [compound 434, (2S,4R)-1-((2R)-2-(3-(4-(((1r,3R)-3-((4-(3-(3-amino-6-(2-hydroxyphenyl)pyridazin-4-yl)-3,8-diazabicyclo[3.2.1]octan-8-yl)pyridin-2-yl)oxy)cyclobutoxy)methyl)piperidin-1-yl)isoxazol-5-yl)-3-methylbutanoyl)-4-hydroxy-N-((S)-1-(4-(4-methylthiazol-5-yl)phenyl)ethyl)pyrrolidine-2-carboxamide] | > 75 | < 2.5 | – | – |
| Cc1ncsc1-c1ccc([C@H](C)NC(=O)[C@@H]2C[C@@H](O)CN2C(=O)[C@H](c2cc(OCCC3(O)CCN(C[C@H]4C[C@H](Oc5cc(N6C7CC[C@@H]6CN(c6cc(-c8ccccc8O)nnc6N)C7)ccn5)C4)CC3)no2)C(C)C)cc1 [compound 435, (2S,4R)-1-((2S)-2-(3-(2-(1-(((1r,3S)-3-((4-(3-(3-amino-6-(2-hydroxyphenyl)pyridazin-4-yl)-3,8-diazabicyclo[3.2.1]octan-8-yl)pyridin-2-yl)oxy)cyclobutyl)methyl)-4-hydroxypiperidin-4-yl)ethoxy)isoxazol-5-yl)-3-methylbutanoyl)-4-hydroxy-N-((S)-1-(4-(4-methylthiazol-5-yl)phenyl)ethyl)pyrrolidine-2-carboxamide] | – | < 2.5 | A (A > 75) | – |
| Cc1ncsc1-c1ccc([C@H](C)NC(=O)[C@@H]2C[C@@H](O)CN2C(=O)[C@@H](c2cc(OCCC3(O)CCN(C[C@H]4C[C@H](Oc5cc(N6C7CCC6CN(c6cc(-c8ccccc8O)nnc6N)C7)ccn5)C4)CC3)no2)C(C)C)cc1 [compound 436, (2S,4R)-1-((2R)-2-(3-(2-(1-(((1r,3R)-3-((4-(3-(3-amino-6-(2-hydroxyphenyl)pyridazin-4-yl)-3,8-diazabicyclo[3.2.1]octan-8-yl)pyridin-2-yl)oxy)cyclobutyl)methyl)-4-hydroxypiperidin-4-yl)ethoxy)isoxazol-5-yl)-3-methylbutanoyl)-4-hydroxy-N-((S)-1-(4-(4-methylthiazol-5-yl)phenyl)ethyl)pyrrolidine-2-carboxamide] | > 75 | < 2.5 | – | – |
| Cc1nccn1-c1ccc([C@H](C)NC(=O)[C@@H]2C[C@@H](O)CN2C(=O)[C@@H](c2cc(N3CCN(CC4CCN(C[C@H]5C[C@H](Oc6cc(N7C8CCC7CN(c7cc(-c9ccccc9O)nnc7N)C8)ccn6)C5)CC4)CC3)no2)C(C)C)cc1 [compound 437, (2S,4R)-1-((2R)-2-(3-(4-((1-(((1r,3r)-3-((4-(3-(3-amino-6-(2-hydroxyphenyl)pyridazin-4-yl)-3,8-diazabicyclo[3.2.1]octan-8-yl)pyridin-2-yl)oxy)cyclobutyl)methyl)piperidin-4-yl)methyl)piperazin-1-yl)isoxazol-5-yl)-3-methylbutanoyl)-4-hydroxy-N-((S)-1-(4-(2-methyl-1H-imidazol-1-yl)phenyl)ethyl)pyrrolidine-2-carboxamide] | > 75 | < 2.5 | – | – |
| CC(C)[C@H](C(=O)N1C[C@H](O)C[C@H]1C(=O)N[C@@H](C)c1ccc(C2CC2(F)F)cc1)c1cc(OCCN2CCC(O[C@H]3C[C@H](Oc4cc(N5C6CCC5CN(c5cc(-c7ccccc7O)nnc5N)C6)ccn4)C3)CC2)no1 (stereo partly drawn) [compound 438, (2S,4R)-1-((2S)-2-(3-(2-(4-((1r,3S)-3-((4-(3-(3-amino-6-(2-hydroxyphenyl)pyridazin-4-yl)-3,8-diazabicyclo[3.2.1]octan-8-yl)pyridin-2-yl)oxy)cyclobutoxy)piperidin-1-yl)ethoxy)isoxazol-5-yl)-3-methylbutanoyl)-N-((1S)-1-(4-(2,2-difluorocyclopropyl)phenyl)ethyl)-4-hydroxypyrrolidine-2-carboxamide] | – | > 30 | – | – |
| CC(C)[C@@H](C(=O)N1C[C@H](O)C[C@H]1C(=O)N[C@@H](C)c1ccc(C2CC2(F)F)cc1)c1cc(OCCN2CCC(O[C@H]3C[C@H](Oc4cc(N5C6CCC5CN(c5cc(-c7ccccc7O)nnc5N)C6)ccn4)C3)CC2)no1 (stereo partly drawn) [compound 439, (2S,4R)-1-((2R)-2-(3-(2-(4-((1r,3R)-3-((4-(3-(3-amino-6-(2-hydroxyphenyl)pyridazin-4-yl)-3,8-diazabicyclo[3.2.1]octan-8-yl)pyridin-2-yl)oxy)cyclobutoxy)piperidin-1-yl)ethoxy)isoxazol-5-yl)-3-methylbutanoyl)-N-((1S)-1-(4-(2,2-difluorocyclopropyl)phenyl)ethyl)-4-hydroxypyrrolidine-2-carboxamide] | – | > 30 | – | – |
| Cc1ncsc1-c1cnc([C@@H](C)NC(=O)[C@@H]2C[C@@H](O)CN2C(=O)[C@H](c2cc(OCCN3CCC(O[C@H]4C[C@H](Oc5cc(N6C7CCC6CN(c6cc(-c8ccccc8O)nnc6N)C7)ccn5)C4)CC3)no2)C(C)C)cn1 [compound 440, (2S,4R)-1-((2S)-2-(3-(2-(4-((1r,3S)-3-((4-(3-(3-amino-6-(2-hydroxyphenyl)pyridazin-4-yl)-3,8-diazabicyclo[3.2.1]octan-8-yl)pyridin-2-yl)oxy)cyclobutoxy)piperidin-1-yl)ethoxy)isoxazol-5-yl)-3-methylbutanoyl)-4-hydroxy-N-((R)-1-(5-(4-methylthiazol-5-yl)pyrazin-2-yl)ethyl)pyrrolidine-2-carboxamide] | – | > 30 | – | – |
| Cc1ncsc1-c1cnc([C@@H](C)NC(=O)[C@@H]2C[C@@H](O)CN2C(=O)[C@@H](c2cc(OCCN3CCC(O[C@H]4C[C@H](Oc5cc(N6C7CCC6CN(c6cc(-c8ccccc8O)nnc6N)C7)ccn5)C4)CC3)no2)C(C)C)cn1 [compound 441, (2S,4R)-1-((2R)-2-(3-(2-(4-((1r,3R)-3-((4-(3-(3-amino-6-(2-hydroxyphenyl)pyridazin-4-yl)-3,8-diazabicyclo[3.2.1]octan-8-yl)pyridin-2-yl)oxy)cyclobutoxy)piperidin-1-yl)ethoxy)isoxazol-5-yl)-3-methylbutanoyl)-4-hydroxy-N-((R)-1-(5-(4-methylthiazol-5-yl)pyrazin-2-yl)ethyl)pyrrolidine-2-carboxamide] | > 75 | 2.5 to 10 | – | – |
| Cc1ncsc1-c1ccc([C@@H](C)NC(=O)[C@@H]2C[C@@H](O)CN2C(=O)[C@H](c2cc(OCCN3CCC(O[C@H]4C[C@H](Oc5cc(N6C7CCC6CN(c6cc(-c8ccccc8O)nnc6N)C7)ccn5)C4)CC3)no2)C(C)C)nn1 [compound 442, (2S,4R)-1-((2S)-2-(3-(2-(4-((1r,3S)-3-((4-(3-(3-amino-6-(2-hydroxyphenyl)pyridazin-4-yl)-3,8-diazabicyclo[3.2.1]octan-8-yl)pyridin-2-yl)oxy)cyclobutoxy)piperidin-1-yl)ethoxy)isoxazol-5-yl)-3-methylbutanoyl)-4-hydroxy-N-((R)-1-(6-(4-methylthiazol-5-yl)pyridazin-3-yl)ethyl)pyrrolidine-2-carboxamide] | – | > 30 | – | – |
| Cc1ncsc1-c1ccc([C@@H](C)NC(=O)[C@@H]2C[C@@H](O)CN2C(=O)[C@@H](c2cc(OCCN3CCC(O[C@H]4C[C@H](Oc5cc(N6C7CCC6CN(c6cc(-c8ccccc8O)nnc6N)C7)ccn5)C4)CC3)no2)C(C)C)nn1 [compound 443, (2S,4R)-1-((2R)-2-(3-(2-(4-((1r,3R)-3-((4-(3-(3-amino-6-(2-hydroxyphenyl)pyridazin-4-yl)-3,8-diazabicyclo[3.2.1]octan-8-yl)pyridin-2-yl)oxy)cyclobutoxy)piperidin-1-yl)ethoxy)isoxazol-5-yl)-3-methylbutanoyl)-4-hydroxy-N-((R)-1-(6-(4-methylthiazol-5-yl)pyridazin-3-yl)ethyl)pyrrolidine-2-carboxamide] | – | > 30 | – | – |
| Cc1ncsc1-c1ccc([C@H](C)NC(=O)[C@@H]2C[C@@H](O)CN2C(=O)[C@H](c2cc(OCCC3CCN([C@H]4C[C@H](CN5CCOC6(CCN(c7cc(-c8ccccc8O)nnc7N)CC6)C5)C4)CC3)no2)C(C)C)cc1 [compound 444, (2S,4R)-1-((S)-2-(3-(2-(1-((1r,3S)-3-((9-(3-amino-6-(2-hydroxyphenyl)pyridazin-4-yl)-1-oxa-4,9-diazaspiro[5.5]undecan-4-yl)methyl)cyclobutyl)piperidin-4-yl)ethoxy)isoxazol-5-yl)-3-methylbutanoyl)-4-hydroxy-N-((S)-1-(4-(4-methylthiazol-5-yl)phenyl)ethyl)pyrrolidine-2-carboxamide] | > 75 | < 2.5 | – | – |
| Cc1ncsc1-c1ccc([C@H](C)NC(=O)[C@@H]2C[C@@H](O)CN2C(=O)[C@@H](c2cc(OCCC3CCN([C@H]4C[C@H](CN5CCOC6(CCN(c7cc(-c8ccccc8O)nnc7N)CC6)C5)C4)CC3)no2)C(C)C)cc1 [compound 445, (2S,4R)-1-((R)-2-(3-(2-(1-((1r,3R)-3-((9-(3-amino-6-(2-hydroxyphenyl)pyridazin-4-yl)-1-oxa-4,9-diazaspiro[5.5]undecan-4-yl)methyl)cyclobutyl)piperidin-4-yl)ethoxy)isoxazol-5-yl)-3-methylbutanoyl)-4-hydroxy-N-((S)-1-(4-(4-methylthiazol-5-yl)phenyl)ethyl)pyrrolidine-2-carboxamide] | > 75 | < 2.5 | – | – |
| Cc1ncsc1-c1ccc([C@H](C)NC(=O)[C@@H]2C[C@@H](O)CN2C(=O)C(c2cc(OCCN3[C@H](C)C[C@H](O[C@H]4C[C@H](Oc5cc(N6C7CCC6CN(c6cc(-c8ccccc8O)nnc6N)C7)ccn5)C4)C[C@@H]3C)no2)C(C)C)cn1 (stereo partly drawn) [compound 448, (2S,4R)-1-(2-(3-(2-((2S,4S,6R)-4-((1r,3R)-3-((4-(3-(3-amino-6-(2-hydroxyphenyl)pyridazin-4-yl)-3,8-diazabicyclo[3.2.1]octan-8-yl)pyridin-2-yl)oxy)cyclobutoxy)-2,6-dimethylpiperidin-1-yl)ethoxy)isoxazol-5-yl)-3-methylbutanoyl)-4-hydroxy-N-((S)-1-(6-(4-methylthiazol-5-yl)pyridin-3-yl)ethyl)pyrrolidine-2-carboxamide] | > 75 | – | – | < 2.5 |
